Patent US10208030B2, “GPR119 agonist compounds” (Mankind Pharma Ltd., priority 2016, dated 2019)

How the values were obtained:
Male C57BL/6 mice = assay: Oral glucose tolerance test in C57BL/6 mice; format: in vivo; conditions: 3 mpk and 10 mpk oral
Experimental: (§1) Male C57BL/6 mice (8-10 weeks) were grouped based on basal glucose levels and animals were fasted for 16 hours. Glucose level of each animal was estimated in blood collected from tail vein before animals were dosed orally with 0.5% Tween 80 and 0.5% NaCMC (vehicle control) and compounds at 3 and 10 mpk (n=5). After 30 minutes of compound dosing, blood glucose was again estimated and 2 g/kg/10 ml (20%) of Glucose solution was administered orally to all the animals. Blood glucose was estimated at 15, 30, 60, 90 and 120 minutes time points after glucose administration. Accu-Check active blood glucose meter was utilised for estimation of blood from tail vein.
Glucose reduction observed in animals treated with compounds of present invention is represented in terms of % AUC reduction. A greater glucose reduction in oral glucose tolerance test indicates the compound's efficacy in this rodent species.

Male SD rats = assay: Oral glucose tolerance test in Sprague-Dawley rats; format: in vivo; conditions: 3 mpk and 10 mpk oral
Experimental: as §1, with “SD rats” for “C57BL/6 mice”
Glucose reduction observed in animals treated with GPR119 agonists is represented in terms of % AUC reduction. A greater glucose reduction in oral glucose tolerance test indicates the compound's efficacy in this rodent species.

hGPR119 = biological target: T1, hGPR119 (Homo sapiens, UniProt Q8TDV5); assay: In vitro cyclic AMP assay (Cisbio HTRF) in CHO-hGPR119 cells; format: cell-based; conditions: cAMP; for activation at 1 µM: 1 h, 60 min, read-out: Induction (% induction at 1 μM); for EC50: class symbols, legend not given
T1 construct: expressed in transfected cells; host or cells: CHO cells (CHO-hGPR119)
T1 sequence (Q8TDV5 1-335): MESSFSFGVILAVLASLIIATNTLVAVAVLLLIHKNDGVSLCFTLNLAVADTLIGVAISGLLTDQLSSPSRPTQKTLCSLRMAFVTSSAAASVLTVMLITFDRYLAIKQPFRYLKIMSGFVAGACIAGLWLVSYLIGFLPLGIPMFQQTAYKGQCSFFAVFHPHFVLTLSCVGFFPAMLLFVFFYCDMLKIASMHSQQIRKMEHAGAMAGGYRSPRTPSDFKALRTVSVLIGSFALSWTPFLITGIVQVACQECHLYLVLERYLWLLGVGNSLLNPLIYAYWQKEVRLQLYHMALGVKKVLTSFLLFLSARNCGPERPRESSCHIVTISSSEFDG
Outline: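 Cells plated at 5000/well and exposed to test compound dose series for 60 min at room temperature with 1 mM IBMX and 0.5% DMSO (final). Lysis with anti-cAMP antibody/d2-cAMP detection reagents, 1 h at room temperature; HTRF read at 665/620 nm (337 nm excitation); EC50 from concentration-response.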

SMILES | activation at 1 µM (hGPR119) [%] | EC50 (hGPR119) | glucose reduction (% AUC reduction) in oral glucose tolerance test (Male C57BL/6 mice) | glucose reduction (% AUC reduction) in oral glucose tolerance test (Male SD rats)
CCCc1cnc(N2CCC([C@H](C)Oc3nn4cc(-c5ccc(S(C)(=O)=O)cc5)nc4s3)CC2)nc1 [Compound 1067, (S)-6-(4-(methylsulfonyl)phenyl)-2-(1-(1-(5-propylpyrimidin-2-yl)piperidin-4-yl)ethoxy)imidazo[2,1-b][1,3,4]thiadiazole] | 55 | A++ | significant dose dependent glucose reduction | significant dose dependent glucose reduction
CC(C)c1noc(N2CCC([C@H](C)Oc3nn4cc(-c5cnc(Cl)nc5)nc4s3)CC2)n1 [Compound 1071, (S)-5-(4-(1-((6-(2-chloropyrimidin-5-yl)imidazo[2,1-b][1,3,4]thiadiazol-2-yl)oxy)ethyl)piperidin-1-yl)-3-isopropyl-1,2,4-oxadiazole] | 75 | A++ | significant dose dependent glucose reduction | significant dose dependent glucose reduction
CCc1cnc(N2CCC([C@H](C)Oc3nn4cc(-c5ccc(S(C)(=O)=O)cc5F)nc4s3)CC2)nc1 [Compound 1086, 2-((S)-1-(1-(5-ethylpyrimidin-2-yl)piperidin-4-yl)ethoxy)-6-(2-fluoro-4-(methylsulfonyl)phenyl)imidazo[2,1-b][1,3,4]thiadiazole] | 87 | A++ | significant dose dependent glucose reduction | significant dose dependent glucose reduction

The next lines start with results.

activation at 1 µM (hGPR119) [%] | EC50 (hGPR119) | SMILES | glucose reduction (% AUC reduction) in oral glucose tolerance test (Male C57BL/6 mice) | glucose reduction (% AUC reduction) in oral glucose tolerance test (Male SD rats)
75 |  | CC(C)c1noc(N2CCC([C@@H](C)Oc3nn4cc(-c5cnc(Cl)cn5)nc4s3)CC2)n1 [Compound 1087, 2-((R)-1-(1-(3-isopropyl-1,2,4-oxadiazol-5-yl)piperidin-4-yl)ethoxy)-6-(5-chloropyrazin-2-yl)imidazo[2,1-b][1,3,4]thiadiazole] | significant dose dependent glucose reduction | significant dose dependent glucose reduction
55 |  | CNS(=O)(=O)c1ccc(-c2cn3nc(OC(C)C4CCN(c5nc(C(C)C)no5)CC4)sc3n2)c(F)c1 (stereo not drawn) [Compound 1109, 3-fluoro-4-(2-(1-(1-(3-isopropyl-1,2,4-oxadiazol-5-yl)piperidin-4-yl)ethoxy)imidazo[2,1-b][1,3,4]thiadiazol-6-yl)-N-methylbenzenesulfonamide] | significant dose dependent glucose reduction | significant dose dependent glucose reduction
